Reference: patent publication US4729991A, “Cephem compounds” (Fujisawa Pharmaceutical Co., Ltd., priority 1978, dated 1988)
In brackets after ≈: the same amount, converted by molar mass.

How the values were obtained:
Assay in all cases: In vitro antibacterial activity, two-fold agar-plate dilution method
Type in all cases: cell-based
[1] = test system: Staphylococcus aureus 209P JC-1; details: HI-agar, 37° C., 20 hours
Description: (§1) (1) Test method In vitro antibacterial activity was determined by the two-fold agar-plate dilution method as described below. One loopful of an overnight culture of each test strain in Trypticase-soy broth was streaked on heart infusion agar (HI-agar) containing graded concentrations of the test compound and incubated at 37° C. for 20 hours. The minimal inhibitory concentration (MIC) was expressed in μg/ml.

Proteus mirabilis 18 = details: HI-agar, 37° C., 20 hours
Description: as §1

[2] = test system: Proteus vulgaris IAM-1025; details: IAM1025, HI-agar, 37° C., 20 hours
Description: as §1

Klebsiella pneumoniae 20 = details: HI-agar, 37° C., 20 hours
Description: as §1

[3] = test system: Escherichia coli NIHJ JC-2; details: NIHJJC2, HI-agar, 37° C., 20 hours
Description: as §1

[4] = test system: Pseudomonus aeruginosa NCTC-10490; details: HI-agar, 37° C., 20 hours
Description: as §1

## CO/N=C(\C(=O)NC1C(=O)N2C(C(=O)O)=C(COC(=O)c3ccccc3)CSC12)c1nc(N)sc1Br (stereo not drawn) [compound 4, 7-[2-(2-amino-5-bromothiazol-4-yl)-2-methoxyiminoacetamido]-3-benzoyloxymethyl-3-cephem-4-carboxylic acid (syn isomer)]
[1]
  MIC: 1.56 µg/mL (≈ 2.62 µM)
Proteus mirabilis 18
  MIC: 3.13 µg/mL (≈ 5.25 µM)
[2]
  MIC: 12.5 µg/mL (≈ 21 µM)
Klebsiella pneumoniae 20
  MIC: 1.56 µg/mL (≈ 2.62 µM)
[3]
  MIC: 6.25 µg/mL (≈ 10.5 µM)
[4]
  MIC: 6.25 µg/mL (≈ 10.5 µM)

## CO/N=C(\C(=O)NC1C(=O)N2C(C(=O)O)=C(CSc3nncs3)CSC12)c1nc(N)sc1Br (stereo not drawn) [compound 1, 7-[2-(2-amino-5-bromothiazol-4-yl)-2-methoxyiminoacetamido]-3-(1,3,4-thiadiazol-2-ylthiomethyl)-3-cephem-4-carboxylic acid (syn isomer)]
[1]
  MIC: 1.56 µg/mL (≈ 2.63 µM)
Proteus mirabilis 18
  MIC: 0.78 µg/mL (≈ 1.32 µM)
[2]
  MIC: 6.25 µg/mL (≈ 10.5 µM)
Klebsiella pneumoniae 20
  MIC: 0.78 µg/mL (≈ 1.32 µM)
[3]
  MIC: 0.78 µg/mL (≈ 1.32 µM)
[4]
  MIC: 3.13 µg/mL (≈ 5.28 µM)

## CO/N=C(\C(=O)NC1C(=O)N2C(C(=O)O)=C(CSc3nnnn3C)CSC12)c1nc(N)sc1Br (stereo not drawn) [compound 3, 7-[2-(2-amino-5-bromothiazol-4-yl)-2-methoxyiminoacetamido]-3-(1-methyl-1H-tetrazol-5-ylthiomethyl)-3-cephem-4-carboxylic acid (syn isomer)]
[1]
  MIC: 3.13 µg/mL (≈ 5.3 µM)
Proteus mirabilis 18
  MIC: 3.13 µg/mL (≈ 5.3 µM)
[2]
  MIC: 12.5 µg/mL (≈ 21.2 µM)
Klebsiella pneumoniae 20
  MIC: 0.39 µg/mL (≈ 0.66 µM)
[3]
  MIC: 1.56 µg/mL (≈ 2.64 µM)
[4]
  MIC: 3.13 µg/mL (≈ 5.3 µM)

## CO/N=C(\C(=O)NC1C(=O)N2C(C(=O)O)=C(CSc3nnc(C)s3)CSC12)c1nc(N)sc1Br (stereo not drawn) [compound 2, 7-[2-(2-amino-5-bromothiazol-4-yl)-2-methoxyiminoacetamide]-3-(5-methyl-1,3,4-thiadiazol-2-ylthiomethyl)-3-cephem-4-carboxylic acid (syn isomer)]
[1]
  MIC: 3.13 µg/mL (≈ 5.16 µM)
Proteus mirabilis 18
  MIC: 6.25 µg/mL (≈ 10.3 µM)
[2]
  MIC: 12.5 µg/mL (≈ 20.6 µM)
Klebsiella pneumoniae 20
  MIC: 3.13 µg/mL (≈ 5.16 µM)
[3]
  MIC: 1.56 µg/mL (≈ 2.57 µM)
[4]
  MIC: 6.25 µg/mL (≈ 10.3 µM)

## CO/N=C(\C(=O)NC1C(=O)N2C(C(=O)O)=C(CSc3nncs3)CSC12)c1nc(N)sc1Cl (stereo not drawn) [compound 5, 7-[2-(2-amino-5-chlorothiazol-4-yl)-2-methoxyiminoacetamido]-3-(1,3,4-thiadiazol-2-ylthiomethyl)-3-cephem-4-carboxylic acid (syn isomer)]
[1]
  MIC: 3.13 µg/mL (≈ 5.71 µM)
Proteus mirabilis 18
  MIC: 0.78 µg/mL (≈ 1.42 µM)
[2]
  MIC: 1.56 µg/mL (≈ 2.85 µM)
Klebsiella pneumoniae 20
  MIC: 0.39 µg/mL (≈ 0.712 µM)
[3]
  MIC: 1.56 µg/mL (≈ 2.85 µM)
[4]
  MIC: 1.56 µg/mL (≈ 2.85 µM)
